The target of experiment [1] is influenza virus sialidase (N1) (Influenza A virus, UniProt Q9WAA1). Briefly: biochemical.
Experiment [2] concerns avian influenza virus H5N1. The following applies: literature value, Li et al. ref. 12; read-out: EC50 value against avian influenza virus H5N1; cited from earlier work.

Structures can show the parent of a compound that is named as a salt. Where two headings read alike, the source gives them in different places.

influenza virus sialidase (N1), sequence (Q9WAA1 whole entry, looked up): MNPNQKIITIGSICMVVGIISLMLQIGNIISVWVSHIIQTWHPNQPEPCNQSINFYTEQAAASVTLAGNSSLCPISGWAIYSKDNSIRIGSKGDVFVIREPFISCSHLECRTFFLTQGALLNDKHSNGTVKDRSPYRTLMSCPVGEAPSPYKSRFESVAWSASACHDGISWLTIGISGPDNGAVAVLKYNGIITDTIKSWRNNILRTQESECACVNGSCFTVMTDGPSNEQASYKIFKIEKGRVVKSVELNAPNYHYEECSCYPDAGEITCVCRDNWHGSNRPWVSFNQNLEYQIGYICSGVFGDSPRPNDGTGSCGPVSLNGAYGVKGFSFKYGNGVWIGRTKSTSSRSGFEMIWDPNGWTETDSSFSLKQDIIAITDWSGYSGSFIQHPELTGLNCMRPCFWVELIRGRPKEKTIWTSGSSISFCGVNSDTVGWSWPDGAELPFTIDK

For “4-Acetylamino-3-[4-((17α)-estra-1,3,5(10)-triene-3,17-dihydroxy-17-yl)-[1,2,3]triazol-1-yl]-5-(1-ethyl-propoxy)-cyclohex-1-enecarboxylic acid L-arginine salt [Compound 44]”, the Ki in experiment [1] (read-out: Ki) was 59 µM. Same read-out and setting: as for `CC(=O)N[C@H]1[C@H]([C@H](O)[C@H](O)CO)OC(C(=O)O)=C[C@@H]1N` [4-amino-4-deoxy-Neu5Ac2en, reference compound], the figure is 0.01 µM. Regarding `CC(=O)N[C@H]1[C@H]([C@H](O)[C@H](O)CO)OC(C(=O)O)=C[C@@H]1NC(=N)N` [4-deoxy-4-guanidino-Neu5Ac2en], in experiment [2], the EC50 is 2.8 µM. In turn, `CCC(CC)OC1CC(C(=O)O)=CC(n2cc(CCCO)nn2)C1NC(C)=O` (centres unmarked) [Compound 1, 4-Acetylamino-5-(1-ethyl-propoxy)-3-[4-(3-hydroxy-propyl)-[1,2,3]triazol-1-yl]-cyclohex-1-enecarboxylic acid] showed a Ki in experiment [1] of 5 µM.

`CCC(CC)OC1CC(C(=O)O)=CC(n2cc(C(O)CC)nn2)C1NC(C)=O` (centres unmarked) [Compound 2, 4-Acetylamino-5-(1-ethyl-propoxy)-3-[4-(1-hydroxy-propyl)-[1,2,3]triazol-1-yl]-cyclohex-1-enecarboxylic acid] yielded a Ki in experiment [1] of 0.7 µM. `CCC(CC)OC1CC(C(=O)O)=CC(n2cc(C(C)(C)O)nn2)C1NC(C)=O` (centres unmarked) [Compound 3, 4-Acetylamino-5-(1-ethyl-propoxy)-3-[4-(1-hydroxy-1-methyl-ethyl)-[1,2,3]triazol-1-yl]-cyclohex-1-enecarboxylic acid] registered a Ki in experiment [1] of 2 µM.

For `CCC(CC)OC1CC(C(=O)O)=CC(n2cc(C3(O)CCCCC3)nn2)C1NC(C)=O` (centres unmarked) [Compound 5, 4-Acetylamino-5-(1-ethyl-propoxy)-3-[4-(1-hydroxy-cyclohexyl)-[1,2,3]triazol-1-yl]-cyclohex-1-enecarboxylic acid], in experiment [1], the IC50 turned out to be 48 µM and the “Inhibitory activity in words” value is on record as “less effective as inhibitors”. Consider `CCC(CC)OC1CC(C(=O)O)=CC(n2cc(C3(O)CCCC3)nn2)C1NC(C)=O` (centres unmarked) [Compound 6, 4-Acetylamino-5-(1-ethyl-propoxy)-3-[4-(1-hydroxy-cyclopentyl)-[1,2,3]triazol-1-yl]-cyclohex-1-enecarboxylic acid], for which, in experiment [1], the IC50 worked out at 110 µM and the “Inhibitory activity in words” value is “less effective as inhibitors”. `CCC(CC)OC1CC(C(=O)O)=CC(N)C1NC(C)=O` (centres unmarked) [Compound 38, 4-Acetylamino-3-amino-5-(1-ethyl-propoxy)-cyclohex-1-enecarboxylic acid, reference compound] had a Ki in experiment [1] of 0.02 µM. In experiment [1], `CCC(CC)OC1CC(C(=O)O)=CC(NC(=N)N)C1NC(C)=O` (centres unmarked) [Compound 39, 4-Acetylamino-5-(1-ethyl-propoxy)-3-guanidino-cyclohex-1-enecarboxylic acid Trifluoroacetate salt] returned a Ki of 0.0048 µM.

`CCC(CC)OC1CC(C(=O)O)=CC(n2cc(CCc3ccccc3)nn2)C1NC(C)=O` [Compound 43, 4-Acetylamino-5-(1-ethyl-propoxy)-3-(4-phenethyl-[1,2,3]triazol-1-yl)-cyclohex-1-enecarboxylic acid L-arginine salt] showed a Ki in experiment [1] of 12 µM.

For `CCC(O)c1cn([C@H]2C=C(C(=O)O)O[C@@H]([C@H](O)[C@H](O)CO)[C@@H]2NC(C)=O)nn1` (some centres unmarked) [formula (B)], in experiment [2], the EC50 was 6.4 µM.

As usually defined, the Ki is a measure of affinity in units of concentration, obtained from inhibition or displacement. In general, EC50 refers to the midpoint of the concentration-response curve. By IC50 is commonly meant the concentration needed to halve the response being measured. A high value points to weaker potency in that assay.

The values are drawn from patent US20120010254A1 (priority 2008, published 2012).
